One data set concerns HES1 promoter. Nature of the data set: Chromatin immunoprecipitation (ChIP) at the HES1 promoter in OE33. It counts as cell-based, human. The settings on record: FIG. 8C. The protocol: Notch/NACK-dependent cells were treated with either DAPT as a positive control, DMSO (vehicle) as a negative control, or compounds for screening for 24 hours. After treatment, cells were cross-linked and sonicated to yield chromatin fragments of approximately 500 bp, as previously described (See Weaver et al., Cancer Research 74, 4741-4751 (2014)). Lysates were immunoprecipitated with either α-Notch1 (Bethyl Laboratories, Montgomery, TX; A301-894A), α-Maml1 (Cell Signaling, 12166s), α-NACK (Bethyl Laboratories, A302-675A), or α-PoIII pSer5 (Abcam, ab5131) antibodies. DNA immunoprecipitates were cleaned using the PCR purification Kit (Qiagen). DNA were detected by Syber green qPCR using HES1 specific oligonucleotide primers (forward: 5′CGTGTCTCCTCCTCCCATT3′ (SEQ ID NO: 2); reverse: 5′GGGGGATTCCGCTGTTAT3′ (SEQ ID NO:3)).

The next data set has as its target T1, NACK (Mus musculus, UniProt Q571I4).
T1 sequence (Q571I4 1-1373): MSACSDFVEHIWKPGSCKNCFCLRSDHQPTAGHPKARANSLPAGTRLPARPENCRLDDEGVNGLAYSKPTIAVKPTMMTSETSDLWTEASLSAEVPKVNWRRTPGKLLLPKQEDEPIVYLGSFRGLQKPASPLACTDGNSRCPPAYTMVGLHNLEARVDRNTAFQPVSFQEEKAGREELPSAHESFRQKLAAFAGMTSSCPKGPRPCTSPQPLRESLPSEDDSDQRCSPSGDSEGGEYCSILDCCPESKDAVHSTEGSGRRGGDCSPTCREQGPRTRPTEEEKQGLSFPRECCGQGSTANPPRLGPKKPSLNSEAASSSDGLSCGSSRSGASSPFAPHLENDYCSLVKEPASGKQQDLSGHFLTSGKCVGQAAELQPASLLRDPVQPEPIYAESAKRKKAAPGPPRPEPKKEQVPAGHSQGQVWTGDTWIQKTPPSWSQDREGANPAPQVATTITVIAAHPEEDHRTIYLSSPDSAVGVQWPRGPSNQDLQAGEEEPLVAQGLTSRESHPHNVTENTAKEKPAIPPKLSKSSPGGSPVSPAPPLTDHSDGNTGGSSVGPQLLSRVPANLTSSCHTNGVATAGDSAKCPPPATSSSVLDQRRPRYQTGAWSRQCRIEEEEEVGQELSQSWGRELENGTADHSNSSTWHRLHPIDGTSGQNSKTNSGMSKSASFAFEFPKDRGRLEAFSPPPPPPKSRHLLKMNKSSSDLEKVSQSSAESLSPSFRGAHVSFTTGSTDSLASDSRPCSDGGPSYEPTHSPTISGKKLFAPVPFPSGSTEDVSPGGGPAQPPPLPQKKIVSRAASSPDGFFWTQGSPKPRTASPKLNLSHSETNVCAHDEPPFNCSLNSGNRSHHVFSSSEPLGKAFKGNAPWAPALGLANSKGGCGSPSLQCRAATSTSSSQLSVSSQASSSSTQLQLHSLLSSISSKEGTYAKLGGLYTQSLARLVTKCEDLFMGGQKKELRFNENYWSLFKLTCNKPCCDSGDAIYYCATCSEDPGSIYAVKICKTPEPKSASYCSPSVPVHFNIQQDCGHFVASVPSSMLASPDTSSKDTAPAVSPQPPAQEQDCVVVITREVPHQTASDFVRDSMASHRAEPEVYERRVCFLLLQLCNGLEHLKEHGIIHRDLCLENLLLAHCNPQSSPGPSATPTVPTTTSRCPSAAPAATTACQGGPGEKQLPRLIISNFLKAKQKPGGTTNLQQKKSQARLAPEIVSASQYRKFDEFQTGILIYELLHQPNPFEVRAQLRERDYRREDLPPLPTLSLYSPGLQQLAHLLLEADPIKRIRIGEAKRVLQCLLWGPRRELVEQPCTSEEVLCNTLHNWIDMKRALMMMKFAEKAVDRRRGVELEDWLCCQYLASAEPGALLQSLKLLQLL
Briefly: Surface plasmon resonance (SPR) binding to GST tagged NACK. The settings on record: equilibrium approach, 1:1 binding model; 25° C.; FIG. 10A; read-out: KD. The protocol:
The interaction between inhibitor Z271-0326 and target NACK was characterized using surface plasmon resonance (SPR). For this purpose, GST tagged NACK was captured by a GST antibody that was previously immobilized onto the surface of the chip through standard amide coupling. The dissociation constants associated with binding of the compounds to NACK was determined using the equilibrium approach, which consists of plotting the equilibrium response (Req) as a function of concentration of the compound and fitting the data to a 1:1 binding model.
A GST capture kit (GE Healthcare) were utilized to covalently immobilize an anti-GST antibody, provided in the kit, to the sensor chip surface (CM5 chip, GE Healthcare) by following the manufacturer's instructions. Capture were performed by injecting GST-NACK (1 μg/μL) over the immobilized anti-GST antibody in Hepes buffer (10 mM Hepes, pH 7.5, 150 mM NaCl, 3 mM EDTA, 0.0005% NP-40) for 7 min at 10 μL/min. A reference flow cell was prepared by capturing GST following the procedure described above. […] Experiments were performed on a Biacore T200 instrument (GE Healthcare) at 25° C. Small molecule inhibitors binding to NACK were performed in 50 mM Tris buffer, pH 7.5, containing 150 mM NaCl, 10 mM MgCl2 and 5% DMSO (running buffer). The SPR signal arising from the sample was corrected for its respective control containing DMSO. Data visualization and analysis was performed using Biacore T200 software (GE Healthcare) and Origin 8.0 (OriginLab).

Another data set addresses MAP4K5 (Homo sapiens, UniProt Q9Y4K4). Briefly: ADP-Glo MAP4K5 kinase assay. It counts as biochemical. The settings on record: FIG. 17A. The protocol:
ADP-Glo kinase assay was performed using ADP-Glo™ Kinase Assay (Promega, V6930) according to the manufacture recommended protocol.

The nature of data set [1]: Maximum tolerated dose in efficacy studies. The note with it: mouse, in vivo, ip, 25 mg/kg; 4-week efficacy studies; intraperitoneal.
In data set [2] the test system is esophageal adenocarcinoma (EAC) PDX.
Procedure: Two EAC PDX models were constructed (EAC47 and EAC36) from patient tumor samples. Mice harboring established tumors (approx. 200 mm^3) were treated with either DAPT (20 mg/kg) or Z271-0326 (25 mg/kg) daily via intraperitoneal injections.
When the tumor size reaches 200 mm^3, the corresponding groups were either treated with vehicle (DMSO) or lead compound by IP injection daily.

Chain of MAP4K5 (Q9Y4K4 whole entry, species assumed): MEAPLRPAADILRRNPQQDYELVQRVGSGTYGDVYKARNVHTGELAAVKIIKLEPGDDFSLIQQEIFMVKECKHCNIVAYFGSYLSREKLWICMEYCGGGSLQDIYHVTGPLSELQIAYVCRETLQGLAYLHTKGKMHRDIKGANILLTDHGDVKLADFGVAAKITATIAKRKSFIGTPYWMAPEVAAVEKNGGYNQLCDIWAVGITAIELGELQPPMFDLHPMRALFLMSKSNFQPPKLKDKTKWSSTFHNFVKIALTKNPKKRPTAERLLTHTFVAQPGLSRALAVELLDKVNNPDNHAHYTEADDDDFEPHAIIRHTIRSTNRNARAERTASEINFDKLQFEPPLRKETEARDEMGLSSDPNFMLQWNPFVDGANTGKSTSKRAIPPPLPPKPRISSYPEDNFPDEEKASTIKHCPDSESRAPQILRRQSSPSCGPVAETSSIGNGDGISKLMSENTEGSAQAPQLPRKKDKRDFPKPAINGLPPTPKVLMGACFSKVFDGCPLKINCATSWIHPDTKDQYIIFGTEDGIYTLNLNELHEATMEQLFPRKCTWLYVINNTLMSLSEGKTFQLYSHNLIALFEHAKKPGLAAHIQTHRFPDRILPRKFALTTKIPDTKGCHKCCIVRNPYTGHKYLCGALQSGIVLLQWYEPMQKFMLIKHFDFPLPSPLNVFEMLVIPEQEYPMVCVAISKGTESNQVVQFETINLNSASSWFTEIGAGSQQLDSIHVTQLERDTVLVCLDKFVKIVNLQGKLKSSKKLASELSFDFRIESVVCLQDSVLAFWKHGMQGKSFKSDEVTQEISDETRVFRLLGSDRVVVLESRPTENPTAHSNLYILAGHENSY

For `CCN(CC)C(=O)c1cnn2ccc(C3CCN(S(=O)(=O)c4ccc(NC(C)=O)cc4)CC3)cc12` [Compound Z271-0326, 5-(1-((4-acetamidophenyl)sulfonyl)piperidin-4-yl)-N,N-diethylpyrazolo[1,5-a]pyridine-3-carboxamide], the “binding of N1ICD and NACK to the HES1 promoter” value with HES1 promoter (24 hours) is “abrogated the binding of N1ICD and NACK to the HES1 promoter”. The “Pol II pSer5 initiation complex formation at the HES1 promoter” value in the data set on HES1 promoter is reported as “decreases the RNA polymerase initiation complex (Pol II pSer5) formation at the HES1 promoter”. In addition, the dissociation constant Kd at NACK was determined as 890 ± 70 nM. At MAP4K5, the MAP4K5 kinase inhibition entry is reported as “only meaningfully inhibits LCK out of the three kinases”. For the same molecule, the MTD at 4 weeks in data set [1] stood at 25 mg/kg. Moreover, in data set [2] (Z271-0326 25 mg/kg daily i.p., vs control group, FIG. 11E), the “proliferation index (Ki67 staining)” value is “decrease in proliferation index”. The tumor growth entry in data set [2] (Z271-0326 25 mg/kg daily intraperitoneal, vs vehicle, FIGS. 11A-11C) is on record as “significantly attenuated”.

The record behind these values is US12077508B2, “Inhibitors of the Notch transcriptional activation complex kinase (“NACK”) and methods for use of the same” (UNIVERSITY OF MIAMI, priority 2018, dated 2024).
